Test results from publication PMC8252049 (Chemmedchem, 2021).

Columns and labels:
[1] = target: T1, rat liver TrxR1 (cytosolic thioredoxin reductase) (Rattus norvegicus, UniProt O89049); assay: DTNB reduction, absorbance […] nm; assay type: biochemical
T1 sequence (O89049 1-499): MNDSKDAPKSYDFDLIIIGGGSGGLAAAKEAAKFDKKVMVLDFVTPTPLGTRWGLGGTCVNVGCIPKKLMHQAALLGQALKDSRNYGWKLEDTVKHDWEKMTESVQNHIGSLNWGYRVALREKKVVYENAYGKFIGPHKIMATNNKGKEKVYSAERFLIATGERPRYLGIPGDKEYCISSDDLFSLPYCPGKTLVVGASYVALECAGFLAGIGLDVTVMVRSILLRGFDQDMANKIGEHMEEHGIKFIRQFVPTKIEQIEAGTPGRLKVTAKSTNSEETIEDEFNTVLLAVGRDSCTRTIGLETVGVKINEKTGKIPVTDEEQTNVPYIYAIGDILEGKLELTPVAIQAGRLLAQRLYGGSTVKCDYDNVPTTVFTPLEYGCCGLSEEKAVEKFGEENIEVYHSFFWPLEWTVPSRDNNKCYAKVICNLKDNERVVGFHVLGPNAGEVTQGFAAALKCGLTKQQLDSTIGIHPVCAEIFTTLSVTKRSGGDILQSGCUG

[2] = target: rat liver TrxR2 (mitochondrial thioredoxin reductase) (Rattus norvegicus, UniProt Q9Z0J5); assay: DTNB reduction, absorbance […] nm; assay type: biochemical
rat liver TrxR2 (mitochondrial thioredoxin reductase), sequence (Q9Z0J5 37-526): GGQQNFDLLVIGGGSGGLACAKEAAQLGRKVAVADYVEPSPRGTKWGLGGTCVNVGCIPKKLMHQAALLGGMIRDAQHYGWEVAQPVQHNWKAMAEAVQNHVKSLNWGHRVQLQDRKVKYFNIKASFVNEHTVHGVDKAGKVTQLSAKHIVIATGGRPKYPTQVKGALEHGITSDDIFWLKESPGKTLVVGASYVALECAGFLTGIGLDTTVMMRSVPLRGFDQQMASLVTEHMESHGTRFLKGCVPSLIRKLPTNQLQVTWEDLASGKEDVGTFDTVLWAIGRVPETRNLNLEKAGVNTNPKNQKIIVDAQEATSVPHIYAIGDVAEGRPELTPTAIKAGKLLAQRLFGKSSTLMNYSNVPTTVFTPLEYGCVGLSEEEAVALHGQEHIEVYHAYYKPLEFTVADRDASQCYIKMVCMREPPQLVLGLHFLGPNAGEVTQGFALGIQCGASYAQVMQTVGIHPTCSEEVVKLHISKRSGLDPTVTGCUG

| IC50 [1] | IC50 [2] | Molecule |
| --- | --- | --- |
| 2.59 nM | – | trans-[PtBr2(NHBz2)(PPh3)] [compound 2] |
| 2.27 nM | – | trans-[PtBr2(NHBzBu)(PPh3)] [compound 1] |
| 22.5 nM | 405 nM | [NH2][Pt]([NH2])([Cl])[Cl] [cisplatin] |
